In ChEMBL document CHEMBL3045868, “Synthesis and antibacterial activities of para-alkoxy phenyl--ketoaldehyde derivatives” (Med Chem Res, 2013):
In brackets after ≈: the same amount, converted by molar mass.

How the values were obtained:
[1] = system: Helicobacter pylori; assay: Antibacterial activity against Helicobacter pylori 05-4 assessed as growth inhibition after 16 to 18 hr NCCLS agar dilution method; assay type: functional, 05-Apr
[2] = system: Helicobacter pylori; assay: Antibacterial activity against Helicobacter pylori 05-2 assessed as growth inhibition after 16 to 18 hr NCCLS agar dilution method; assay type: functional
[3] = system: Staphylococcus aureus; assay: Antibacterial activity against Staphylococcus aureus ATCC 25923 assessed as growth inhibition after 16 to 18 hr by NCCLS agar dilution method; assay type: functional
[4] = system: Helicobacter pylori; assay: Antibacterial activity against Helicobacter pylori 05-1 assessed as growth inhibition after 16 to 18 hr NCCLS agar dilution method; assay type: functional
[5] = system: Helicobacter pylori; assay: Antibacterial activity against Helicobacter pylori 06-4 assessed as growth inhibition after 16 to 18 hr NCCLS agar dilution method; assay type: functional
[6] = system: Helicobacter pylori; assay: Antibacterial activity against Helicobacter pylori assessed as growth inhibition after 16 to 18 hr NCCLS agar dilution method; assay type: functional
[7] = system: Helicobacter pylori; assay: Antibacterial activity against Helicobacter pylori 05-14 assessed as growth inhibition after 16 to 18 hr NCCLS agar dilution method; assay type: functional
[8] = system: Helicobacter pylori; assay: Antibacterial activity against Helicobacter pylori 05-12 assessed as growth inhibition after 16 to 18 hr NCCLS agar dilution method; assay type: functional
[9] = system: Escherichia coli; assay: Antibacterial activity against Escherichia coli ATCC 25922 assessed as growth inhibition after 16 to 18 hr NCCLS agar dilution method; assay type: functional
[10] = system: Helicobacter pylori; assay: Antibacterial activity against Helicobacter pylori 06-6 assessed as growth inhibition after 16 to 18 hr NCCLS agar dilution method; assay type: functional
[11] = system: Helicobacter pylori; assay: Antibacterial activity against Helicobacter pylori 06-8 assessed as growth inhibition after 16 to 18 hr NCCLS agar dilution method; assay type: functional
[12] = system: Helicobacter pylori; assay: Antibacterial activity against Helicobacter pylori 05-5 assessed as growth inhibition after 16 to 18 hr NCCLS agar dilution method; assay type: functional
[13] = system: Helicobacter pylori; assay: Antibacterial activity against Helicobacter pylori 06-7 assessed as growth inhibition after 16 to 18 hr NCCLS agar dilution method; assay type: functional
[14] = system: Helicobacter pylori; assay: Antibacterial activity against Helicobacter pylori 06-2 assessed as growth inhibition after 16 to 18 hr NCCLS agar dilution method; assay type: functional
[15] = system: Helicobacter pylori; assay: Antibacterial activity against Helicobacter pylori 05-9 assessed as growth inhibition after 16 to 18 hr NCCLS agar dilution method; assay type: functional
[16] = system: Helicobacter pylori; assay: Antibacterial activity against Helicobacter pylori 06-3 assessed as growth inhibition after 16 to 18 hr NCCLS agar dilution method; assay type: functional
[17] = system: Helicobacter pylori; assay: Antibacterial activity against Helicobacter pylori ATCC 11637 assessed as growth inhibition after 16 to 18 hr NCCLS agar dilution method; assay type: functional
[18] = system: Pseudomonas aeruginosa; assay: Antibacterial activity against Pseudomonas aeruginosa ATCC 27853 assessed as growth inhibition after 16 to 18 hr NCCLS agar dilution method; assay type: functional
[19] = system: Helicobacter pylori; assay: Antibacterial activity against Helicobacter pylori 06-1 assessed as growth inhibition after 16 to 18 hr NCCLS agar dilution method; assay type: functional
[20] = system: Helicobacter pylori; assay: Antibacterial activity against Helicobacter pylori 05-3 assessed as growth inhibition after 16 to 18 hr NCCLS agar dilution method; assay type: functional
[21] = system: Helicobacter pylori; assay: Antibacterial activity against Helicobacter pylori 06-5 assessed as growth inhibition after 16 to 18 hr NCCLS agar dilution method; assay type: functional

Compound: COc1ccc(C(=O)C/C=N/NC(N)=S)cc1
- MIC [1]: > 128 µg/mL
- MIC [2]: > 128 µg/mL
- MIC [3]: > 64 µg/mL
- MIC [4]: > 128 µg/mL
- MIC [5]: > 128 µg/mL
- MIC50 [6]: > 128 µg/mL
- MIC90 [6]: > 128 µg/mL
- MIC [7]: > 128 µg/mL
- MIC [8]: > 128 µg/mL
- MIC [9]: > 64 µg/mL
- MIC [10]: 128 µg/mL (≈ 509 µM)
- MIC [11]: > 128 µg/mL
- MIC [12]: > 128 µg/mL
- MIC [13]: 128 µg/mL (≈ 509 µM)
- MIC [14]: > 128 µg/mL
- MIC [15]: > 128 µg/mL
- MIC [16]: > 128 µg/mL
- MIC [17]: > 128 µg/mL
- MIC [18]: > 64 µg/mL
- MIC [19]: > 128 µg/mL
- MIC [20]: > 128 µg/mL
- MIC [21]: > 128 µg/mL

Compound: CCO/N=C/CC(=O)c1ccc(OC(C)C)cc1
- MIC [3]: > 64 µg/mL
- MIC [9]: > 64 µg/mL
- MIC [18]: > 64 µg/mL

Compound: COc1ccc(C(=O)CC(O)S(=O)(=O)[O-])cc1.[Na+] (configuration not stated)
- MIC [1]: > 128 µg/mL
- MIC [2]: > 128 µg/mL
- MIC [3]: > 64 µg/mL
- MIC [4]: > 128 µg/mL
- MIC [5]: > 128 µg/mL
- MIC50 [6]: > 128 µg/mL
- MIC90 [6]: > 128 µg/mL
- MIC [7]: > 128 µg/mL
- MIC [8]: > 128 µg/mL
- MIC [9]: > 64 µg/mL
- MIC [10]: > 128 µg/mL
- MIC [11]: > 128 µg/mL
- MIC [12]: > 128 µg/mL
- MIC [13]: > 128 µg/mL
- MIC [14]: > 128 µg/mL
- MIC [15]: > 128 µg/mL
- MIC [16]: > 128 µg/mL
- MIC [17]: > 128 µg/mL
- MIC [18]: > 64 µg/mL
- MIC [19]: > 128 µg/mL
- MIC [20]: > 128 µg/mL
- MIC [21]: > 128 µg/mL

Compound: CCO/N=C/CC(=O)c1ccc(OCC)cc1
- MIC [3]: 64 µg/mL (≈ 272 µM)
- MIC [9]: > 64 µg/mL
- MIC [18]: > 64 µg/mL

Compound: CCO/N=C(/C/C=N/OCC)c1ccc(OC)cc1
- MIC [3]: > 64 µg/mL
- MIC [9]: > 64 µg/mL
- MIC [18]: > 64 µg/mL

Compound: COc1ccc(C(=O)C/C=N/O)cc1
- MIC [1]: > 128 µg/mL
- MIC [2]: > 128 µg/mL
- MIC [3]: 4 µg/mL (≈ 20.7 µM)
- MIC [4]: > 128 µg/mL
- MIC [5]: > 128 µg/mL
- MIC50 [6]: > 128 µg/mL
- MIC90 [6]: > 128 µg/mL
- MIC [7]: > 128 µg/mL
- MIC [8]: > 128 µg/mL
- MIC [9]: > 64 µg/mL
- MIC [10]: 64 µg/mL (≈ 331 µM)
- MIC [11]: > 128 µg/mL
- MIC [12]: > 128 µg/mL
- MIC [13]: 64 µg/mL (≈ 331 µM)
- MIC [14]: > 128 µg/mL
- MIC [15]: > 128 µg/mL
- MIC [16]: 64 µg/mL (≈ 331 µM)
- MIC [17]: 64 µg/mL (≈ 331 µM)
- MIC [18]: > 64 µg/mL
- MIC [19]: 64 µg/mL (≈ 331 µM)
- MIC [20]: > 128 µg/mL
- MIC [21]: 64 µg/mL (≈ 331 µM)

Compound: CCOc1ccc(C(=O)C/C=N/OC)cc1
- MIC [3]: 32 µg/mL (≈ 145 µM)
- MIC [9]: > 64 µg/mL
- MIC [18]: > 64 µg/mL

Compound: CCO/N=C(/C/C=N/OCC)c1ccc(OCC)cc1
- MIC [3]: > 64 µg/mL
- MIC [9]: > 64 µg/mL
- MIC [18]: > 64 µg/mL

Compound: CO/N=C/CC(=O)c1ccc(OC(C)C)cc1
- MIC [3]: > 64 µg/mL
- MIC [9]: > 64 µg/mL
- MIC [18]: > 64 µg/mL

Compound: CCO/N=C(/C/C=N/OCC)c1ccc(OC(C)C)cc1
- MIC [3]: > 64 µg/mL
- MIC [9]: > 64 µg/mL
- MIC [18]: > 64 µg/mL
